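A five-concentration, 48-hour dose response in 96-well plates underlies each endpoint, interpolated linearly between surrounding concentrations. At the GI50, growth is halved.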 Activity calls are given as the source filed them. No stated cut-off is given here; in the data, active = GI50 up to about 1.1 µM and inactive = higher.
Key:
Experiment in all cases: NCI anticancer screen, dose series, 48 h
SK-MEL-5 = system: SK-MEL-5
MOLT-4 = system: MOLT-4
HL-60 = system: HL-60
TK-10 = system: TK-10
NCI-H522 = system: NCI-H522
DLD-1 = system: DLD-1
HCC 2998 = system: HCC 2998
HOP-62 = system: HOP-62
NCI-H460 = system: NCI-H460
K562 = system: K562
HCT-116 = system: HCT-116
OVCAR-8 = system: OVCAR-8
OVCAR-3 = system: OVCAR-3
NCI-H23 = system: NCI-H23
SF-295 = system: SF-295
NCI-H226 = system: NCI-H226
HT-29 = system: HT-29

Measured: GI50

N=C(N)NCCCC(Nc1c2ccccc2[n+]([O-])c2ccccc12)C(=O)O (stereo not given)
inactive: SK-MEL-5 22.6 µM | MOLT-4 37.8 µM | HL-60 14.8 µM | TK-10 > 100 µM | NCI-H522 29 µM | DLD-1 28.4 µM | HCC 2998 27.2 µM | HOP-62 > 100 µM | NCI-H460 46 µM | K562 27 µM | HCT-116 24.9 µM | OVCAR-8 31.6 µM | OVCAR-3 63.4 µM | NCI-H23 34.6 µM | SF-295 > 100 µM | NCI-H226 70.6 µM

CC1CCC2c3c([nH]c4ccccc34)C3C(=O)N(c4ccccc4)C(=O)C3C2C1 (stereo not given)
inactive: SK-MEL-5 > 100 µM | MOLT-4 25.4 µM | HL-60 > 250 µM | TK-10 21.7 µM | NCI-H522 142 µM | DLD-1 > 250 µM | HCC 2998 106 µM | HOP-62 32.7 µM | NCI-H460 > 250 µM | K562 46.8 µM | HCT-116 80.2 µM | OVCAR-8 43.5 µM | HT-29 > 250 µM | OVCAR-3 49.8 µM | NCI-H23 34.4 µM | SF-295 15 µM | NCI-H226 32.1 µM

CN1C(c2ccccc2)CC(C)(O)CC1c1ccccc1 (stereo not given)
inactive: SK-MEL-5 > 100 µM | MOLT-4 > 100 µM | HL-60 99.5 µM | TK-10 > 100 µM | NCI-H522 > 100 µM | DLD-1 > 100 µM | HCC 2998 > 100 µM | HOP-62 > 100 µM | NCI-H460 > 100 µM | K562 > 100 µM | HCT-116 > 100 µM | OVCAR-8 > 100 µM | HT-29 > 100 µM | OVCAR-3 > 100 µM | NCI-H23 > 100 µM | SF-295 > 100 µM | NCI-H226 > 100 µM

O=C1CCC(=O)c2cc(Br)ccc2N1
inactive: SK-MEL-5 > 100 µM | MOLT-4 > 100 µM | HL-60 > 100 µM | TK-10 > 100 µM | NCI-H522 > 100 µM | DLD-1 > 100 µM | HCC 2998 > 100 µM | HOP-62 > 100 µM | NCI-H460 > 100 µM | K562 > 100 µM | HCT-116 > 40.8 µM | OVCAR-8 > 100 µM | HT-29 > 100 µM | OVCAR-3 > 100 µM | NCI-H23 > 100 µM | SF-295 > 100 µM | NCI-H226 > 100 µM

C/C(CC(=O)Nc1cccc([N+](=O)[O-])c1)=N\NC(=O)C[n+]1ccccc1
inactive: SK-MEL-5 > 100 µM | MOLT-4 > 100 µM | HL-60 > 100 µM | TK-10 > 100 µM | NCI-H522 > 100 µM | DLD-1 > 100 µM | HCC 2998 > 100 µM | HOP-62 > 100 µM | NCI-H460 > 100 µM | HCT-116 > 100 µM | OVCAR-8 > 100 µM | HT-29 > 100 µM | OVCAR-3 > 100 µM | NCI-H23 > 100 µM | SF-295 > 100 µM | NCI-H226 > 100 µM

C/C(=N\N(C)C)c1sc(-n2nc(-c3ccccc3)cc2-c2ccccc2)nc1C
inactive: SK-MEL-5 > 100 µM | MOLT-4 84.3 µM | HL-60 > 100 µM | TK-10 72.8 µM | NCI-H522 > 100 µM | DLD-1 > 100 µM | HCC 2998 > 100 µM | HOP-62 > 100 µM | NCI-H460 > 100 µM | K562 > 100 µM | HCT-116 > 100 µM | OVCAR-8 > 100 µM | HT-29 > 100 µM | OVCAR-3 47.9 µM | NCI-H23 > 100 µM | SF-295 51.2 µM | NCI-H226 > 100 µM

NNC(=O)CCC(=O)Nc1ccc(Cl)cc1Cl
inactive: SK-MEL-5 > 100 µM | MOLT-4 > 100 µM | HL-60 94.4 µM | TK-10 > 100 µM | NCI-H522 > 100 µM | DLD-1 > 100 µM | HCC 2998 > 100 µM | HOP-62 > 100 µM | NCI-H460 > 100 µM | K562 19.1 µM | HCT-116 > 100 µM | OVCAR-8 > 100 µM | HT-29 > 100 µM | OVCAR-3 > 100 µM | NCI-H23 > 100 µM | SF-295 > 100 µM | NCI-H226 > 100 µM

O=CC1CCCc2ccccc21 (stereo not given)
inactive: SK-MEL-5 > 100 µM | MOLT-4 > 100 µM | HL-60 > 63 µM | TK-10 > 100 µM | NCI-H522 > 79.6 µM | DLD-1 > 43.1 µM | HCC 2998 > 100 µM | HOP-62 > 100 µM | NCI-H460 > 61.8 µM | K562 > 60 µM | HCT-116 > 50.1 µM | OVCAR-8 > 100 µM | HT-29 > 100 µM | OVCAR-3 > 100 µM | NCI-H23 > 100 µM | SF-295 > 100 µM | NCI-H226 > 100 µM

CC(=O)Nc1ccc(/C=C/C(=O)c2sc(-c3cccnc3)nc2C)cc1
inactive: SK-MEL-5 > 100 µM | MOLT-4 > 100 µM | HL-60 > 100 µM | TK-10 > 100 µM | NCI-H522 > 100 µM | DLD-1 > 100 µM | HCC 2998 > 100 µM | HOP-62 > 100 µM | NCI-H460 > 100 µM | K562 > 100 µM | OVCAR-8 > 100 µM | HT-29 > 100 µM | OVCAR-3 > 100 µM | NCI-H23 > 100 µM | SF-295 > 100 µM | NCI-H226 > 100 µM

CC(=O)OC(OC(C)=O)c1ncccc1C(=O)OC(C)C
inactive: SK-MEL-5 38.2 µM | MOLT-4 35.1 µM | HL-60 8.65 µM | TK-10 > 100 µM | NCI-H522 75.7 µM | DLD-1 31.2 µM | HCC 2998 42.6 µM | HOP-62 > 100 µM | NCI-H460 11.3 µM | K562 18.9 µM | HCT-116 57.8 µM | OVCAR-8 > 100 µM | HT-29 33.3 µM | OVCAR-3 > 100 µM | NCI-H23 56.1 µM | SF-295 42.4 µM | NCI-H226 > 100 µM

O=C(c1ccccc1)[C@H]1Nc2cnccc2C2c3ccccc3CC21 (stereo not given in full)
inactive: SK-MEL-5 3.31 µM | MOLT-4 2.99 µM | HL-60 4.63 µM | TK-10 35.1 µM | NCI-H522 2.78 µM | DLD-1 7.01 µM | HCC 2998 39.4 µM | HOP-62 25 µM | NCI-H460 15.1 µM | K562 3.14 µM | HCT-116 3.81 µM | OVCAR-8 8.24 µM | HT-29 19.4 µM | OVCAR-3 7.69 µM | NCI-H23 8.51 µM | SF-295 18.2 µM | NCI-H226 4.26 µM

Cc1cc(Cl)ccc1NC(=O)C(=O)Cc1nc2ccc(C(=O)c3ccccc3)cc2nc1O
inactive: SK-MEL-5 79.6 µM | MOLT-4 46.8 µM | HL-60 99.5 µM | TK-10 > 100 µM | NCI-H522 39.4 µM | DLD-1 > 100 µM | HCC 2998 > 100 µM | HOP-62 92 µM | NCI-H460 96.8 µM | HCT-116 > 100 µM | OVCAR-8 > 100 µM | HT-29 > 100 µM | OVCAR-3 > 100 µM | NCI-H23 > 100 µM | SF-295 95.1 µM | NCI-H226 64.7 µM

Reference: ChEMBL document CHEMBL1201862, “PubChem BioAssay data set” (2004)
